Assay [1] has as its system acetic acid-induced writhing in mice. The format is in vivo, ICR mice. Conditions: counted 30 min, control 27.3 ± 3.3, mean ± SEM, n = 6–8. The procedure: The ICR mice (18–22 g) used in this study were purchased from the Experimental Animal Center of SLac-kinda (Changsha, China). The animals were maintained at 20–25°C and freely allowed to standard rodent chow and water ad libitum. Ethical approval for in vivo experiments in animals was approved by the Animal Care and Use Committee (ACUC) at the Hunan Province Animal Management Office (HPAMO).
The abdominal writhing responses were counted for 30 min continuously.

Assay [2] deals with Human Nav1.9. Nature of the assay: Whole-cell patch-clamp, Nav1.9 in ND7/23 cells. The format is cell-based. Particulars: up to 10 μM, 50 ms to −40 mV from −120 mV, in presence of 1 μM TTX. (In general: The patch-clamp technique gives a direct electrical read-out from membranes.)
For assay [3], the target named is T1, Nav1.7 (Homo sapiens, UniProt Q15858).
T1 construct: expressed in transfected cells; host or cells: HEK293T
Kind of assay: Recovery from fast inactivation (repriming) of Nav1.7. Conditions: 0.2 μM; at –100 mV; control 6.42 ± 0.85 ms; P < 0.05 paired t-test; mean ± SEM, n = 6–11 cells. The format is cell-based. The source says:
(§1) The cDNA genes encoding rat Nav1.4 and human Nav1.7 were subcloned into vectors pRGB4 and pcDNA3.1-mod, respectively. Mutations of rNav1.4 (N655D, Q657E, and N655D/Q657E) and hNav1.7 (D816N, E818Q, and D816N/E818Q) were constructed using the Gene Tailor Site-Directed Mutagenesis system (Invitrogen, Carlsbad, CA, United States), according to the manufacturer’s instructions. Nav1.2–Nav1.7 and mutant plasmids together with eGFP were transiently transfected into HEK293T cells while Nav1.8 together with eGFP was transiently transfected into ND7/23 cells by Lipofectamine 2000 (Invitrogen, Carlsbad, CA, United States). […] Cells with green fluorescent protein fluorescence were selected for whole-cell patch-clamp recordings 24 h after transfection.
(§2) Whole-cell patch-clamp recordings were performed at room temperature (20–25°C) using an EPC 10 USB Patch Clamp Amplifier (HEKA, Elektronik, Lambrecht, Germany). […] Data was analyzed by software Igo Pro 6.10A (WaveMetrics, Lake Oswego, OR, United States), SigmaPlot 10.0 (Sigma-Aldrich, St. Louis, MO, United States), OriginPro 8 (OriginLab Corp., Northampton, MA, United States), and GraphPad Prism 5 (GraphPad Software, San Diego, CA, United States). […]
Fast inactivation time constants were calculated by fitting current decay traces with a single exponential function using the I–V protocol described above. […]

Assay [4] addresses T2, Nav1.2 (Homo sapiens, UniProt Q99250).
T2 construct: expressed in transfected cells; host or cells: HEK293T
Nature of the assay: Whole-cell patch-clamp, Nav1.2 in HEK293T cells. Particulars: mean ± SEM. The format is cell-based.
From the text: as §1, with “States). Additionally, plasmids β1- and β2-eGFP encoding the human β1 and β2 subunits, respectively, were co-transfected with those encoding WT Nav1.7 and Nav1.7 mutations in HEK293T cells.” for “States).”
as §2

Assay [5] has as its target T3, Nav1.4/Q657E (Rattus norvegicus, UniProt P15390, Q657E).
T3 construct: expressed in transfected cells; host or cells: HEK293T
Nature of the assay: Whole-cell patch-clamp, Nav1.4/Q657E in HEK293T cells. The format is cell-based.
From the text: as §1, with “States). Additionally, plasmids β1- and β2-eGFP encoding the human β1 and β2 subunits, respectively, were co-transfected with those encoding WT Nav1.7 and Nav1.7 mutations in HEK293T cells.” for “States).”
as §2

Here are results for one compound from publication PMC6198068, “Discovery of a Novel Nav1.7 Inhibitor From Cyriopagopus albostriatus Venom With Potent Analgesic Efficacy” (Frontiers in Pharmacology, 2018).

Structures are written as SMILES. Like-named read-outs stand apart in the source and are kept apart here. Where a SMILES comes first, the peptide text is derived from it. Bridges are numbered along the chain shown (N, C = ends).

T2 sequence (Q99250 whole entry): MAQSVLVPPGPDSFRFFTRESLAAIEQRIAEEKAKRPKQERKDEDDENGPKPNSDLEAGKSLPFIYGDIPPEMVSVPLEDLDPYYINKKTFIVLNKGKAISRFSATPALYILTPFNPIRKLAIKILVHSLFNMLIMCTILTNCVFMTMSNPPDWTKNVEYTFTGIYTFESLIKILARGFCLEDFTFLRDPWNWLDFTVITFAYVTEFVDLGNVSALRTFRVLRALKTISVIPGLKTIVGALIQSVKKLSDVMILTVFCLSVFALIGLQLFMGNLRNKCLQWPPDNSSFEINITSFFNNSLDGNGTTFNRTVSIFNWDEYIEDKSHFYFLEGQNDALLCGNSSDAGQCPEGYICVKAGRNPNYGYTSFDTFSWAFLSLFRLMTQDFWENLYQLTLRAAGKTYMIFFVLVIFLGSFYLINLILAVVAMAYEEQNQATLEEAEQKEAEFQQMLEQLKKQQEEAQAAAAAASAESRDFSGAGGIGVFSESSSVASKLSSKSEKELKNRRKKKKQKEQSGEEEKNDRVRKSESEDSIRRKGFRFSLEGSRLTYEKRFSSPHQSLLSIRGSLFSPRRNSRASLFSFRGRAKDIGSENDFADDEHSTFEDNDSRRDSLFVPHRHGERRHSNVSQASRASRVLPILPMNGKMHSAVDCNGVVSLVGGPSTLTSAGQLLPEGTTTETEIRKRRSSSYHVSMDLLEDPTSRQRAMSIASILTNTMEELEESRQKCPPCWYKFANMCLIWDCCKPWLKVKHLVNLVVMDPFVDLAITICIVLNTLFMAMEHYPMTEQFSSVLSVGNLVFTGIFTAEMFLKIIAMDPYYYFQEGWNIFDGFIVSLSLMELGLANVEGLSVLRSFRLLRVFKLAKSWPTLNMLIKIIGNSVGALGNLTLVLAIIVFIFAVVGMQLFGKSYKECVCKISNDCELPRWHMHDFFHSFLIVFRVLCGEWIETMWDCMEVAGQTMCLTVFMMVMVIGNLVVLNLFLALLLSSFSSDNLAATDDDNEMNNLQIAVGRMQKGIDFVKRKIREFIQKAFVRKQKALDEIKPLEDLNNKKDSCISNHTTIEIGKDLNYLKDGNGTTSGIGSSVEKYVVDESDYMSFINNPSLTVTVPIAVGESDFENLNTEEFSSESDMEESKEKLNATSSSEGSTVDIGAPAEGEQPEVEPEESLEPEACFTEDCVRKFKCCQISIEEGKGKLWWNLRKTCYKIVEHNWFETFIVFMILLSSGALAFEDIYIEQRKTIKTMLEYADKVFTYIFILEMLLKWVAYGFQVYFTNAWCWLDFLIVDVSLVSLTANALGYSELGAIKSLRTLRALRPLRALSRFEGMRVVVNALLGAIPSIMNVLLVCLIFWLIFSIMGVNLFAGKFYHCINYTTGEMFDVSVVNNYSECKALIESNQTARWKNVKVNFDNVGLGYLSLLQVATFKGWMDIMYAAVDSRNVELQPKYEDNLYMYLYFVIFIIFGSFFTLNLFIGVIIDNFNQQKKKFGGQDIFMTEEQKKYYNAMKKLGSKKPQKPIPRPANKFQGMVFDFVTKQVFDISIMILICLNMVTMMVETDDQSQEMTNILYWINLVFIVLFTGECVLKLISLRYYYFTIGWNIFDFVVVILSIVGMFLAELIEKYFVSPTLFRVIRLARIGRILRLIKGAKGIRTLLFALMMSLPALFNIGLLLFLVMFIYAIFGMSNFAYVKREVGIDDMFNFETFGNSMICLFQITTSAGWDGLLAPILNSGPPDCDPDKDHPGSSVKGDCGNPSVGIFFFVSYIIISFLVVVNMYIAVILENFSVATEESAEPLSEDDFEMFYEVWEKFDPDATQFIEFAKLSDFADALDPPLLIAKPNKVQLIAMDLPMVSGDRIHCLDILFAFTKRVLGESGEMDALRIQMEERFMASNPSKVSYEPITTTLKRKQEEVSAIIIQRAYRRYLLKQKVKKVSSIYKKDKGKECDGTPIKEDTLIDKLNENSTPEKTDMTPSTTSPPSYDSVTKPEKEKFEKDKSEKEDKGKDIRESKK
T3 sequence (P15390 whole entry Q657E): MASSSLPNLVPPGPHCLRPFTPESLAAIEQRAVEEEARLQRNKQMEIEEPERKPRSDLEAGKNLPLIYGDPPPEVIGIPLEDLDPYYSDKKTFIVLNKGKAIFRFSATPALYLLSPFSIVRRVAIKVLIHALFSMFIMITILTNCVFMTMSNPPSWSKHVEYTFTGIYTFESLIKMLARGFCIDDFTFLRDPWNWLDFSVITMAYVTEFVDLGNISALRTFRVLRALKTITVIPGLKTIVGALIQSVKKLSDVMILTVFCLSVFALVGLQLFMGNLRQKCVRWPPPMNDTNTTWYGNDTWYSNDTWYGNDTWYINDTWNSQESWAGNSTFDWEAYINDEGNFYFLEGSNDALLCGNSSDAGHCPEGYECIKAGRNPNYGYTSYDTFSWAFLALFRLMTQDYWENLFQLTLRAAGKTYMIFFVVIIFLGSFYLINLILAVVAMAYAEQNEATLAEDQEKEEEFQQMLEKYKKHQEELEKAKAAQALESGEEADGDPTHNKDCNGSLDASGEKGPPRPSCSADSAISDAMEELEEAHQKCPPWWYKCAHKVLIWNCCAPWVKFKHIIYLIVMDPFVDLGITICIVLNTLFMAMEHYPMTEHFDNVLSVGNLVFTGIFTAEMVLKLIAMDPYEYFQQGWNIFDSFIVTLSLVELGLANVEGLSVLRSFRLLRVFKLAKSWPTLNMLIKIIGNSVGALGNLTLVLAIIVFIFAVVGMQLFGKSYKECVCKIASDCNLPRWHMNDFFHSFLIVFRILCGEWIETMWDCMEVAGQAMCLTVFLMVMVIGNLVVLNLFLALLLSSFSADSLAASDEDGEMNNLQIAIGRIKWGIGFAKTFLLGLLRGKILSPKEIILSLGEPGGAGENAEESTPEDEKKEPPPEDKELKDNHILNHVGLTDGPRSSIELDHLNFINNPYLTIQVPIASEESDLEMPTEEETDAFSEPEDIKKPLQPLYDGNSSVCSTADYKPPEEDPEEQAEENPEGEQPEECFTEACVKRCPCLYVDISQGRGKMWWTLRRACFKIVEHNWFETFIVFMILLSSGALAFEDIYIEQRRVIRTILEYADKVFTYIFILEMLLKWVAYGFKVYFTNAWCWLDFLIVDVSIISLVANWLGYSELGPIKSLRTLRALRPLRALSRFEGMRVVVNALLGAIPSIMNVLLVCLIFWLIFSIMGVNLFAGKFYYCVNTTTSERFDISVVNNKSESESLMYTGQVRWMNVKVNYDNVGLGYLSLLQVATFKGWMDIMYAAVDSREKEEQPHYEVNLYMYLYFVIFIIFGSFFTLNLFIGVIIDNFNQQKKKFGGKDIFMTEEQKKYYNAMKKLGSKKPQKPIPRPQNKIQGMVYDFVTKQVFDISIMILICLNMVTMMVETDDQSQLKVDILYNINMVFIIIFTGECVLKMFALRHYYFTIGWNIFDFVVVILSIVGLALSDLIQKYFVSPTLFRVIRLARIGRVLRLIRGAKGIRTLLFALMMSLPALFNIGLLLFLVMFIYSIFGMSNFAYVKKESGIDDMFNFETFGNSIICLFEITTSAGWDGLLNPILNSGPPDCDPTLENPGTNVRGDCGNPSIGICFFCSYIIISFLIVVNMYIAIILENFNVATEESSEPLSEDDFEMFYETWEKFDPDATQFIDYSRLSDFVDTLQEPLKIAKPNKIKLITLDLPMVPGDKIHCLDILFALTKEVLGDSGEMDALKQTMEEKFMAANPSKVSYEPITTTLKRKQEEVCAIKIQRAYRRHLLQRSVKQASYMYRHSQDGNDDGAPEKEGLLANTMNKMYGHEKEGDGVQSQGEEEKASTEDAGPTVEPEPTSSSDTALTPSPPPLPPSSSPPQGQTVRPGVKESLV

For `CC(C)C[C@H](NC(=O)[C@H](CC(=O)O)NC(=O)[C@H](Cc1ccc(O)cc1)NC(=O)[C@H](CCCCN)NC(=O)[C@@H]1CSSC[C@@H]2NC(=O)[C@H](CCCCN)NC(=O)[C@H](CC(=O)O)NC(=O)[C@H](CC(N)=O)NC(=O)[C@H](CO)NC(=O)[C@@H]3CCCN3C(=O)[C@H](CC(N)=O)NC(=O)[C@@H]3CSSC[C@H](NC(=O)[C@H](C(C)C)NC(=O)[C@H](CC(C)C)NC(=O)[C@H](CO)NC(=O)[C@H](CO)NC(=O)[C@H](CO)NC(=O)[C@H](CCCCN)NC(=O)[C@H](CSSC[C@H](NC(=O)[C@H](C)N)C(=O)N[C@@H](CC(C)C)C(=O)NCC(=O)N[C@@H](Cc4ccccc4)C(=O)NCC(=O)N[C@@H](CCC(=O)O)C(=O)N[C@@H](CCCCN)C(=O)N3)NC2=O)C(=O)N[C@@H](CO)C(=O)N[C@@H](CCC(N)=O)C(=O)N[C@@H](CCCCN)C(=O)N[C@@H](Cc2c[nH]cn2)C(=O)N[C@@H](CCCCN)C(=O)N[C@@H](Cc2c[nH]c3ccccc23)C(=O)N1)C(=O)O` [Ca2a] (H-ACLGFGEKCNPSNDKCCKSSSLVCSQKHKWCKYDL-OH; disulfide 2-17, 9-24, 16-31 (inferred); N-terminus and C-terminus assumed), the figures for the writhing numbers in assay [1] (50 μg/kg i.p. 15 min prior to 0.8% acetic acid), in assay [1] (100 μg/kg i.p. 15 min prior to 0.8% acetic acid) and in assay [1] (200 μg/kg i.p. 15 min prior to 0.8% acetic acid) were 15.8 ± 2.4, 10.5 ± 2.8 and 5.4 ± 2.2, respectively. For the same compound, in assay [2], the “inhibitory effect on Nav1.9 currents” value is reported as “no inhibitory effects”. Besides, in assay [3], the “τ of recovery from fast inactivation at Nav1.7” value stood at 8.93 ± 1.62 ms. The “decrease of Nav1.2 current amplitude” value in assay [4] (1 μM, 50 ms to −10 mV from −100 mV) came out at 82.6 ± 2.7%. Also, the IC50 came to 216 ± 9.1 nM in assay [4] (whole-cell patch-clamp, n = 4–7 cells per data point) and 269 ± 14.9 nM in assay [5] (mean ± SEM, n = 4–5 cells per data point). Besides, the “inhibition of peak current of Nav1.4/Q657E” value in assay [5] (1 μM, n = 4–5 cells) is “significantly inhibited”.

As a reminder, the IC50 is the concentration at which inhibition is half-maximal. Low values mean inhibition by little substance, high ones a need for much substance.
